Each structure is given as a SMILES string.

For test [1], the system named is AsPC-1 (homozygous mutant KRAS G12D human pancreatic cell line). As to the kind of experiment: KRAS 3D-Cell Proliferation Assay, AsPC-1 (Example 503). It is filed as cell-based. To be noted: Homo sapiens, ASPC1, 168 h, AsPC-1 3D culture, 7 days, CellTiter-Glo 3D; read-out: Prolif AsPC-1 3D ATP IC50. The method, boiled down: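 IC50 values derive from 4-parameter Hill fits of normalized luminescence, where DMSO sets 0% and 1 μM staurosporine 100% inhibition. 3D cultures in RPMI-1640 with 10% fetal bovine serum were exposed to compound for 7 days before CellTiter-Glo 3D lysis.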

Test [2] relates to PC-9 (KRAS wild type human lung adenocarcinoma cell line). The test is described as follows: KRAS 3D-Cell Proliferation Assay, PC-9 (Example 503). Type of test: cell-based. To be noted: 168 h, PC-9 3D culture, 7 days, CellTiter-Glo 3D, read-out: Prolif PC9 3D ATP IC50. As for the experimental part:
Example 503: KRAS 3D-Cell Proliferation Assays. Cellular potencies of compounds are assessed by evaluating inhibition of proliferation in 3D cultures of homozygous mutant KRAS G12D human pancreatic cell lines (AsPC-1 and HPAC) as compared to a KRAS wild type human lung adenocarcinoma cell line (PC-9 and/or H1975). Cells are seeded into 384-well black round-bottom, ultra-low attachment assay plates in 50 uL cell growth medium (RPMI-1640 with 10% fetal bovine serum and 2 mM L-glutamine). After overnight incubation at 37° C. and 5% CO2, compounds solubilized in DMSO are added as dilution series to the wells in a total volume of 150 nL (0.3% DMSO final). The cells are incubated for 7 days at 37° C. and 5% CO2. Cell proliferation is quantitated by addition of 40 uL/well of CellTiter-GloÒ 3D (Promega), and the well contents are mixed 20× at high speed using liquid handling automation workstation (Bravo with 384-well head) and centrifuged at 1500 rpm for 2 minutes to eliminate bubbles. This reagent in combination with mechanical disruption releases the cellular ATP to promote activity in a luciferase-based enzyme/substrate chemiluminescent detection system. After a 30-minute incubation under ambient conditions with shaking and an additional 10 minutes without shaking, the luminescence is read on a plate reader (e.g., EnVision [PerkinElmer]). The results are normalized to percent inhibition based on the following control samples: DMSO (0% inhibition) and 1 μM staurosporine (100% inhibition). The normalized luminescence results are plotted against compound concentration, and the data are fit to a 4-parameter Hill equation to determine the IC50 values.

Take `C[C@@H]1Oc2nc(-c3cc(N)c(F)c(F)c3C(F)(F)F)c(F)c3nc(OC[C@@]45CCCN4C[C@H](F)C5)nc(c23)N2C[C@H]3CC[C@H](N3)[C@@H]12` [Compound 15, 2,3-difluoro-5-((5S,5aS,6S,9R)-1-fluoro-12-(((2R,7aS)-2-fluorotetrahydro-1H-pyrrolizin-7a(5H)-yl)methoxy)-5-methyl-5a,6,7,8,9,10-hexahydro-5H-4-oxa-3,10a,11,13,14-pentaaza-6,9-methanonaphtho[1,8-ab]heptalen-2-yl)-4-(trifluoromethyl)aniline]: the IC50 in test [1] is 0.00157 µM; in test [2] it was 2.9 µM.

In the case of `Cc1c(F)c(N)cc(-c2nc3c4c(nc(OC[C@@]56CCCN5C[C@H](OCc5ccc(-c7ccccc7C#N)cc5)C6)nc4c2F)N2C[C@H]4CC[C@H](N4)[C@H]2[C@H](C)O3)c1C(F)(F)F` [Compound 32, 4′-((((2R,7aS)-7a-((((5S,5aS,6S,9R)-2-(5-amino-4-fluoro-3-methyl-2-(trifluoromethyl)phenyl)-1-fluoro-5-methyl-5a,6,7,8,9,10-hexahydro-5H-4-oxa-3,10a,11,13,14-pentaaza-6,9-methanonaphtho[1,8-ab]heptalen-12-yl)oxy)methyl)hexahydro-1H-pyrrolizin-2-yl)oxy)methyl)-[1,1′-biphenyl]-2-carbonitrile], the results for the half-maximal inhibitory concentration (IC50) in test [1] and in test [2] were 0.00338 µM and 0.821 µM, respectively.

Take `C[C@@H]1Oc2nc(-c3nc(N)cc4ccccc34)c(F)c3nc(OC[C@@]45CCCN4C[C@H](F)C5)nc(c23)N2C[C@H]3CC[C@H](N3)[C@@H]12` [Compound 41, 1-((5S,5aS,6S,9R)-1-fluoro-12-(((2R,7aS)-2-fluorotetrahydro-1H-pyrrolizin-7a(5H)-yl)methoxy)-5-methyl-5a,6,7,8,9,10-hexahydro-5H-4-oxa-3,10a,11,13,14-pentaaza-6,9-methanonaphtho[1,8-ab]heptalen-2-yl)isoquinolin-3-amine]: the half-inhibitory concentration (IC50) in test [1] is 0.98 µM; in test [2] it was at least 20 µM.

In the case of `Cc1cc(N)nc(-c2nc3c4c(nc(OC[C@@]56CCCN5CC5(CC5(F)F)C6)nc4c2F)N2C[C@H]4CC[C@H](N4)[C@H]2CO3)c1C(F)(F)F` (stereo partly drawn) [Compound 42, 6-((5aS,6S,9R)-12-(((7a′S)-2,2-difluorodihydro-1′H,3′H-spiro[cyclopropane-1,2′-pyrrolizin]-7a′(5′H)-yl)methoxy)-1-fluoro-5a,6,7,8,9,10-hexahydro-5H-4-oxa-3,10a,11,13,14-pentaaza[6,9]methanonaphtho[1,8-ab]heptalen-2-yl)-4-methyl-5-(trifluoromethyl)pyridin-2-amine], the values for the IC50 in test [1] and in test [2] were 0.122 µM and 7.04 µM, respectively.

In the case of `Cc1cc(N)nc(-c2nc3c4c(nc(OC[C@@]56CCCN5C[C@H](F)C6)nc4c2F)N2C[C@H]4CC[C@H](N4)[C@H]2CO3)c1C(F)(F)F` [Compound 44, 6-((5aS,6S,9R)-1-fluoro-12-(((2R,7aS)-2-fluorotetrahydro-1H-pyrrolizin-7a(5H)-yl)methoxy)-5a,6,7,8,9,10-hexahydro-5H-4-oxa-3,10a,11,13,14-pentaaza-6,9-methanonaphtho[1,8-ab]heptalen-2-yl)-4-methyl-5-(trifluoromethyl)pyridin-2-amine], the IC50 in test [1] is 0.337 µM; in test [2] it was at least 20 µM.

Regarding `C#Cc1c(F)ccc2cccc(-c3nc4c5c(ncnc5c3F)N3C[C@H]5CC[C@H](N5)[C@H]3[C@H](C)O4)c12` [Compound 56, (5S,5aS,6S,9R)-2-(8-ethynyl-7-fluoronaphthalen-1-yl)-1-fluoro-5-methyl-5a,6,7,8,9,10-hexahydro-5H-4-oxa-3,10a,11,13,14-pentaaza-6,9-methanonaphtho[1,8-ab]heptalene], the half-inhibitory concentration (IC50) is 5.74 µM in test [1] and at least 20 µM in test [2].

As for `C[C@@H]1Oc2nc(-c3cc(N)c(F)cc3C(F)(F)F)c(F)c3nc(OC[C@]45CCN4CC(F)(F)C5)nc(c23)N2C[C@H]3CC[C@H](N3)[C@@H]12` [Compound 71, 5-((5S,5aS,6S,9R)-12-(((R)-3,3-Difluoro-1-azabicyclo[3.2.0]heptan-5-yl)methoxy)-1-fluoro-5-methyl-5a,6,7,8,9,10-hexahydro-5H-4-oxa-3,10a,11,13,14-pentaaza-6,9-methanonaphtho[1,8-ab]heptalen-2-yl)-2-fluoro-4-(trifluoromethyl)aniline], the IC50 in test [1] is 0.132 µM; in test [2] it was at least 20 µM.

With `C[C@@H]1Oc2nc(-c3cnccc3C(F)(F)F)c(F)c3nc(OC[C@]45CCN4CC(F)(F)C5)nc(c23)N2C[C@H]3CC[C@H](N3)[C@@H]12` [Compound 78, (5S,5aS,6S,9R)-12-(((R)-3,3-Difluoro-1-azabicyclo[3.2.0]heptan-5-yl)methoxy)-1-fluoro-5-methyl-2-(4-(trifluoromethyl)pyridin-3-yl)-5a,6,7,8,9,10-hexahydro-5H-4-oxa-3,10a,11,13,14-pentaaza-6,9-methanonaphtho[1,8-ab]heptalene], the half-inhibitory concentration (IC50) in test [1] is 15.9 µM; in test [2] it was at least 20 µM.

With `C[C@@H]1Oc2nc(-c3nc(N)c(F)cc3C(F)(F)F)c(F)c3nc(OC[C@@]45CCCN4C[C@H](F)C5)nc(c23)N2C[C@H]3CC[C@H](N3)[C@@H]12` [Compound 84, 3-Fluoro-6-((5S,5aS,6S,9R)-1-fluoro-12-(((2R,7aS)-2-fluorotetrahydro-1H-pyrrolizin-7a(5H)-yl)methoxy)-5-methyl-5a,6,7,8,9,10-hexahydro-5H-4-oxa-3,10a,11,13,14-pentaaza-6,9-methanonaphtho[1,8-ab]heptalen-2-yl)-5-(trifluoromethyl)pyridin-2-amine], the IC50 in test [1] was 1.16 µM; in test [2] it was at least 20 µM.

As for `C[C@@H]1Oc2nc(-c3nc(N)ccc3C(F)(F)F)c(F)c3nc(OC[C@@]45CCCN4C[C@H](F)C5)nc(c23)N2C[C@H]3CC[C@H](N3)[C@@H]12` [Compound 85, 6-((5S,5aS,6S,9R)-1-fluoro-12-(((2R,7aS)-2-fluorotetrahydro-1H-pyrrolizin-7a(5H)-yl)methoxy)-5-methyl-5a,6,7,8,9,10-hexahydro-5H-4-oxa-3,10a,11,13,14-pentaaza-6,9-methanonaphtho[1,8-ab]heptalen-2-yl)-5-(trifluoromethyl)pyridin-2-amine], the IC50 in test [1] is 0.975 µM; in test [2] it was at least 20 µM.

On to `Cc1ccnc(-c2nc3c4c(nc(OC[C@]56CCN5CC(F)(F)C6)nc4c2F)N2C[C@H]4CC[C@H](N4)[C@H]2[C@H](C)O3)c1C(F)(F)F` [Compound 88, (5S,5aS,6S,9R)-12-(((R)-3,3-Difluoro-1-azabicyclo[3.2.0]heptan-5-yl)methoxy)-1-fluoro-5-methyl-2-(4-methyl-3-(trifluoromethyl)pyridin-2-yl)-5a,6,7,8,9,10-hexahydro-5H-4-oxa-3,10a,11,13,14-pentaaza-6,9-methanonaphtho[1,8-ab]heptalene], for which the IC50 in test [1] and in test [2] was at least 20 µM throughout.

Values taken from patent publication US12338256B2, “Aza-tetracyclic oxazepine compounds and uses thereof” (Genentech, Inc., priority 2022, dated 2025).
